For the test, the system named is IL-1 produced by human monocytes. Nature of the test: Interleukin 1 (IL-1) production by LPS-stimulated human monocytes. Type of test: cell-based. The note with it: human peripheral blood monocytes, compound 1 h before lipopolysaccharide (50 ng/ml), 24 h at 37° C.; IL-1 in supernatant by bioassay (EL-4) or ELISA. The protocol:
Human peripheral blood monocytes were isolated and purified from either fresh blood preparations from volunteer donors, or from blood bank buffy coats, according to the procedure of Colotta et al, J Immunol, 132, 936 (1984). These monocytes (1×10^6) were plated in 24-well plates at a concentration of 1-2 million/ml per well. The cells were allowed to adhere for 2 hours, after which time non-adherent cells were removed by gentle washing. Test compounds were then added to the cells for 1 h before the addition of lipopolysaccharide (50 ng/ml), and the cultures were incubated at 37° C. for an additional 24 h. At the end of this period, culture supernatants were removed and clarified of cells and all debris. Culture supernatants were then immediately assayed for IL-1 biological activity, either by the method of Simon et al., J. Immunol. Methods, 84, 85, (1985) (based on ability of IL-1 to stimulate a Interleukin 2 producing cell line (EL-4) to secrete IL-2, in concert with A23187 ionophore) or the method of Lee et al., J. ImmunoTherapy, 6 (1), 1-12 (1990) (ELISA assay).
As to `Cc1nc(-c2ccncc2)c(-c2ccc(F)cc2)o1` [Example 2, 5-(4-Fluorophenyl)-2-methyl-4-(4-pyridyl)oxazole], the “inhibition of in vitro IL-1 produced by human monocytes” value is “inhibitors”.
With `Fc1ccc(-c2ncoc2-c2ccncc2)cc1` [Example 7, 4-(4-Fluorophenyl)-5-(4-pyridyl)oxazole] the entry was “inhibitors”.
On to `COc1cccc(-c2oc(C)nc2-c2ccncc2)c1` [Example 1, 5-(3-Methoxyphenyl)-2-methyl-4-(4-pyridyl)oxazole], for which the “inhibition of in vitro IL-1 produced by human monocytes” value was “inhibitors”.

These data come from patent publication US20040106793A1, “Oxazoles for treating cytokine mediated diseases” (SmithKline Beecham Corporation, priority 1993, published 2004).
